Measured values published in PubChem BioAssay (NCI).
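Values below derive from 48-hour exposures of cells grown in 96-well plates, with endpoints linearly interpolated between the two concentrations bracketing the appropriate inhibition level. GI50: concentration for 50% inhibition of growth. Definition used: TGI = concentration required for complete inhibition of growth.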 Where a SMILES comes first, the peptide text is derived from it. The star is where a group is joined. Cbz = O=C(OCc1ccccc1)*; CH2Cl = ClC*

These molecules were tested on SF-539 CNS (assay: DTP human tumour cell line panel, 48 h).
`C[C@@H]1CC[C@@H]2[C@@H]1[C@H](OC(=O)/C=C/c1ccccc1)[C@]1(C3CCCCC3)C[C@@H](OC(=O)CO)[C@@]2(C)O1` showed a GI50 of 5.48 µM and a TGI of 18.5 µM. With `CCn1c2ccccc2c2cc(NC(=O)Nc3ccc([N+](=O)[O-])cc3C)ccc21` the GI50 was 1.83 µM and the TGI was 4.41 µM. Molecule `COc1cccc2c1C(=O)c1c(O)c3c(c(O)c1C2=O)C[C@](O)(C(=O)CO)C[C@H]3O[C@@H]1C[C@@H](NC(=O)CCCCCN(C)C2(c3ccc(F)cc3)CC3CCC2C3)[C@H](O)[C@@H](C)O1` (some centres not stated) has a GI50 of 3.67 µM and a TGI of 10.3 µM. With `CCSc1ncnc2c1ncn2C1OC(CO)C(O)C1O` (configuration not stated) the GI50 was 0.437 µM and the TGI was over 100 µM. With `O=C(CSc1nc2ccccc2nc1-c1ccccc1)Nc1ccc(F)cc1` the GI50 was 18.6 µM and the TGI was 35.4 µM. `CC[C@H]1[C@@H]2C=C[C@@H]3[C@H]4C/C=C\C(=O)NCCC[C@@H]5NC(=O)/C(=C(O)/C=C/[C@@H]4C[C@@H]3[C@H]2C[C@H]1C)C5=O` gave a GI50 of 1.3 µM and a TGI of 2.72 µM.

These molecules were tested on HL-60(TB) leukemia (assay: DTP human tumour cell line panel, 48 h).
`O=C(N[C@@H](c1ccc(Cl)c(Cl)c1)C1CNC1)c1ccc2cnccc2c1` showed a GI50 of 0.534 µM and a TGI of 3.89 µM. For `O=C1OCC2=C1C(c1cccc(Br)c1)c1cc3c(cc1N2CCO)CCC3` (configuration not stated), the GI50 was 0.0763 µM and the TGI was 0.444 µM. For `Nc1nc(/C=C\c2ccc([N+](=O)[O-])s2)nc(N2CCCC2)n1`, the GI50 was 5.39 µM and the TGI was 25.3 µM. In the case of `CC(=O)OC12C=CC(=O)N1c1ccccc1C(=O)O2` (configuration not stated), the TGI is reported as over 100 µM. `Oc1cccnc1[Se]` was tested, and the TGI was over 100 µM. In the case of `CC(C)Oc1ccc2cc(-c3nn(CC4CCNCC4)c4ncnc(N)c34)ccc2c1`, the GI50 is reported as 6.45 µM and the TGI is reported as 20.6 µM. For `COc1cc(F)ccc1-c1ncnc(Nc2cccc(CS(C)(=N)=O)c2)n1` (configuration not stated), the GI50 was 0.392 µM and the TGI was 3.14 µM. With `CS(=O)(=O)CCNCc1nc(-c2ccc3ncnc(Nc4ccc(OCc5cccc(C(F)(F)F)c5)cc4)c3c2)cs1` the GI50 was over 25 µM and the TGI was over 25 µM. `CC(C)CC(NC(=O)OCc1ccccc1)C(=O)NC(Cc1ccccc1)C(=O)CCl` (stereo not drawn) (Cbz-Leu-Phe-CH2Cl; configuration not given here) was tested, and the TGI was 3.53 µM. For `[Cl][Hg][c]1cc[c]([Hg][Cl])o1`, the GI50 was 2.39 µM and the TGI was 7.03 µM. In the case of `CCOC(=O)C(Cc1ccc(CCCC(=O)NCCC(=O)Nc2ccc3nc(C)sc3c2)cc1)C(=O)OCC`, the GI50 is reported as 23.7 µM and the TGI is reported as 64.7 µM. Work on `NCCNc1c2c(c(NCCN)c3[nH]ccc13)C(=O)c1ccccc1C2=O` yielded a GI50 of 0.132 µM and a TGI of 0.47 µM. Work on `Cc1c2c(C#N)nccc2c(C)c2c1c1ccccc1n2Cc1ccccc1` yielded a TGI of over 100 µM. `COc1cc(Cn2c(-c3ccccc3)c(Cl)c3c2-c2oncc2CC3)cc(OC)c1` was tested, and the GI50 was 3.32 µM and the TGI was 38.6 µM. `COc1ccc(-c2nn(-c3ccc(NC(=O)c4ccc(Cl)c(Cl)c4)cc3)cc2-c2ccncc2)cc1Cl` showed a GI50 of 2.76 µM and a TGI of over 50 µM. `O=C(CC1(O)C(=O)N(Cc2ccccc2)c2ccc(F)cc21)c1ccc(C(=O)NCC2CCC3(CC2)OOC2(CCCCC2)OO3)cc1` (configuration not stated) gave a GI50 of 0.349 µM and a TGI of 0.999 µM. In the case of `COc1cc2c3c(n(C)c(=O)c2cc1OC)-c1cc2c(cc1/C3=C\CN)OCO2`, the GI50 is reported as 0.294 µM and the TGI is reported as over 100 µM. `CN(C)C(n1cc2c(c1)-c1ccc(Cl)cc1C(c1ccccc1F)=NC2)n1cc2c(c1)-c1ccc(Cl)cc1C(c1ccccc1F)=NC2` showed a TGI of over 100 µM. `COc1ccc(/C=C2/N=C(c3ccccc3)N(c3c(C)n(C)n(-c4ccccc4)c3=O)C2=O)cc1OC` was tested, and the GI50 was over 100 µM and the TGI was over 100 µM. With `C[C@@H]1CC[C@@H]2[C@@H]1[C@H](OC(=O)/C=C/c1ccccc1)[C@]1(C3CCCCC3)C[C@@H](OC(=O)CO)[C@@]2(C)O1` the GI50 was 2.75 µM and the TGI was 6.43 µM. `CCn1c2ccccc2c2cc(NC(=O)Nc3ccc([N+](=O)[O-])cc3C)ccc21` gave a GI50 of 1.06 µM and a TGI of 5.85 µM. `COc1cccc2c1C(=O)c1c(O)c3c(c(O)c1C2=O)C[C@](O)(C(=O)CO)C[C@H]3O[C@@H]1C[C@@H](NC(=O)CCCCCN(C)C2(c3ccc(F)cc3)CC3CCC2C3)[C@H](O)[C@@H](C)O1` (some centres not stated) was tested, and the GI50 was 6.59 µM and the TGI was 16.1 µM. `CCSc1ncnc2c1ncn2C1OC(CO)C(O)C1O` (configuration not stated) gave a GI50 of 0.354 µM and a TGI of 31.1 µM. `O=C(CSc1nc2ccccc2nc1-c1ccccc1)Nc1ccc(F)cc1` was tested, and the GI50 was 66.9 µM and the TGI was over 100 µM. For `CC[C@H]1[C@@H]2C=C[C@@H]3[C@H]4C/C=C\C(=O)NCCC[C@@H]5NC(=O)/C(=C(O)/C=C/[C@@H]4C[C@@H]3[C@H]2C[C@H]1C)C5=O`, the GI50 was 1.92 µM and the TGI was 3.99 µM.
